Test in all cases: caspase 3/7 activation in multiple cell lines – Caspase-Glo 3/7 luminescence, multiple timepoints, mechanism study for HRAS target identification project, profiling panel (AID 652143)
One experiment relates to SNB-19. The following applies: Cell line panel, caspase 3/7 luminescence, 1/6/24 h.
A further experiment relates to U-251. The following applies: Cell line panel, caspase 3/7 luminescence, 1/6/24 h.
The next experiment relates to SR. The following applies: Cell line panel, caspase 3/7 luminescence, 1/6/24 h.
The test system of the next experiment is HT-29. The note with it: Cell line panel, caspase 3/7 luminescence, 1/6/24 h, caspase 3/7 AC40, timepoint 2.
A further experiment deals with LOX-IMVI. The following applies: Cell line panel, caspase 3/7 luminescence, 1/6/24 h, caspase 3/7 AC40, timepoint 3.

The source of these data is PubChem BioAssay AID652143 (Broad Institute, 2013).

Inconclusive results are not listed. Activity calls are given as the source filed them. The rule behind the calls is not given here. Where only a bound is given, the exact number is not on record here.

As for `CO[C@H]1C[C@@H]2CC[C@@H](C)[C@@](O)(O2)C(=O)C(=O)N2CCCC[C@H]2C(=O)O[C@H]([C@H](C)C[C@@H]2CC[C@@H](O)[C@H](OC)C2)CC(=O)[C@H](C)/C=C(\C)[C@@H](O)[C@@H](OC)C(=O)[C@H](C)C[C@H](C)/C=C/C=C/C=C/1C`, the outcome in the experiment on SNB-19 was inactive. The compound also returned an AC40 in the experiment on SNB-19 (caspase 3/7 AC40, timepoint 2) of 35 µM.
On to `COc1ccc(N(C(=O)CCl)C(C(=O)NCCc2ccccc2)c2cccs2)cc1Cl` (stereo not given), for which the AC40 in the experiment on U-251 is 14.7 µM; in the experiment on U-251 (caspase 3/7 AC40, timepoint 2), 1.45 µM; in the experiment on U-251 (caspase 3/7 AC40, timepoint 3), 0.948 µM; in the experiment with SR it was 22.2 µM; in the experiment with SR (caspase 3/7 AC40, timepoint 2) it was 0.177 µM; in the experiment with SR (caspase 3/7 AC40, timepoint 3), 0.551 µM.
As to `Cc1onc(C(=O)N2CCN(C(c3ccc(Cl)cc3)c3ccc(OCCOCCOCCNC(=O)OC(C)(C)C)cc3)CC2)c1[N+](=O)[O-]` (stereo not given), in the experiment on SNB-19, the result was inactive.
Take `CC(C)(C)OC(=O)NCCOCCOCCOc1ccc(N(C(=O)CCl)C(C(=O)NCCc2ccccc2)c2cccs2)cc1Cl` (stereo not given): in the experiment with SNB-19, the AC40 is > 35 µM (inactive).
On to `Cc1onc(C(=O)N2CCN(C(c3ccc(Cl)cc3)c3ccc(Cl)cc3)CC2)c1[N+](=O)[O-]`, for which the result in the experiment on SNB-19 was inactive.
With `O=C(NCCOCCOCCOc1ccc(N(C(=O)CCl)C(C(=O)NCCc2ccccc2)c2cccs2)cc1Cl)c1ccc(COC2C#CCCCCC2)cc1` (stereo not given), the AC40 in the experiment on HT-29 was greater than 35 µM.
Turning to `CCC(=O)N(c1ccc(OC)c(Cl)c1)C(C(=O)NCCc1ccccc1)c1cccs1` (stereo not given), the outcome in the experiment with U-251 and with SNB-19 was inactive. The compound also had an AC40 in the experiment with LOX-IMVI greater than 35 µM.
